{"source": "BindingDB's records for PubMed 8496821", "about": "(Fujisawa Pharmaceutical, 1993)", "key": {"[1]": {"biological_target": "5-hydroxytryptamine receptor 2A (Rattus norvegicus, UniProt P14842)", "sequence (P14842 whole entry)": "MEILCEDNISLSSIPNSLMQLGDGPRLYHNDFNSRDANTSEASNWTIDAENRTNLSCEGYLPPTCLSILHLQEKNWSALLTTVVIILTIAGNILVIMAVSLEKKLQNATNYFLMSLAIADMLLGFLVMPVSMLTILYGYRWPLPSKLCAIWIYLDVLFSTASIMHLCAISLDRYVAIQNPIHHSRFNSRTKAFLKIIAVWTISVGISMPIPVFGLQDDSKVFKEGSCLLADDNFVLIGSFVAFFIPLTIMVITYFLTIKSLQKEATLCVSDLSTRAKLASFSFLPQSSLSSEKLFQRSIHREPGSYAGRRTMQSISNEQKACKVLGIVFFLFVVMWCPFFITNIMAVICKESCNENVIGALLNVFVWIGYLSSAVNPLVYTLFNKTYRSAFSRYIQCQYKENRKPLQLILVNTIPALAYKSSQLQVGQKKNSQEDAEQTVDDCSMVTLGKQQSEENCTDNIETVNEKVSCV"}, "[2]": {"biological_target": "D(2) dopamine receptor (Rattus norvegicus, UniProt P61169)", "sequence (P61169 whole entry)": "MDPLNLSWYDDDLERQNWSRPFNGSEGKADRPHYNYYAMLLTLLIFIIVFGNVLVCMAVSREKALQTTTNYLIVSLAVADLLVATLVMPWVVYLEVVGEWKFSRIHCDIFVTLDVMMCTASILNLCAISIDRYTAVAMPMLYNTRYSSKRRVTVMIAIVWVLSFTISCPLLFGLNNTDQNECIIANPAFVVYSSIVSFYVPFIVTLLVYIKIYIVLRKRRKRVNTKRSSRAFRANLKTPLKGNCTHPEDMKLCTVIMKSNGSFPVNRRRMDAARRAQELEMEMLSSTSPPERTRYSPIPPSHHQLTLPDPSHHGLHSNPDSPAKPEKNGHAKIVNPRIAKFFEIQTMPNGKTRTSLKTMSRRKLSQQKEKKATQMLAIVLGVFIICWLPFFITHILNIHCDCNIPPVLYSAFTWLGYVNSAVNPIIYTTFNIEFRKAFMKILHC"}}}
{"smiles": "Cc1[nH]cnc1CC1CCc2c(C)c3ccccc3n2C1=O", "note": "(configuration not stated) [CAS_125368]", "values": [{"measurement": "Ki", "setting": "[1]", "value": 0.01, "unit": "nM"}, {"measurement": "Ki", "setting": "[2]", "value": 0.01, "unit": "nM"}]}
